The experiment deals with Prostaglandin G/H synthase 1/2 (Homo sapiens, UniProt P23219+P35354). As to the kind of experiment: Inhibition of COX (unknown origin).
Sequence of Prostaglandin G/H synthase 1/2 (P35354 whole entry): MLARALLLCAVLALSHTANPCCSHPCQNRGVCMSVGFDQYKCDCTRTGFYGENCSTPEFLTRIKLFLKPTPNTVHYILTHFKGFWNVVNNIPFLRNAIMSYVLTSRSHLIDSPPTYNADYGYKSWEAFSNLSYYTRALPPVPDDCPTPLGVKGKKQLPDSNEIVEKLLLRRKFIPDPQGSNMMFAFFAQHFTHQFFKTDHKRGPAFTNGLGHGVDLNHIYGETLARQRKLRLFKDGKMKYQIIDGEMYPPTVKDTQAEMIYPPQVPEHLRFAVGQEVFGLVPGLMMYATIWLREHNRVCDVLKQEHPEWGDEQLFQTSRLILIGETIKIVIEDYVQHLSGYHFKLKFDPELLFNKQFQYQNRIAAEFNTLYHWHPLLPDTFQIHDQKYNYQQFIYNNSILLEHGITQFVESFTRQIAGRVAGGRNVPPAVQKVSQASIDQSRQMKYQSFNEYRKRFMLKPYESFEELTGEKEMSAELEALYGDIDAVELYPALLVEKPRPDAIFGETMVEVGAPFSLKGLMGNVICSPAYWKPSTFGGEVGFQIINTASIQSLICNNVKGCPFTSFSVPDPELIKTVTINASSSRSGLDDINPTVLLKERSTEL
Sequence of Prostaglandin G/H synthase 1/2 (P23219 whole entry): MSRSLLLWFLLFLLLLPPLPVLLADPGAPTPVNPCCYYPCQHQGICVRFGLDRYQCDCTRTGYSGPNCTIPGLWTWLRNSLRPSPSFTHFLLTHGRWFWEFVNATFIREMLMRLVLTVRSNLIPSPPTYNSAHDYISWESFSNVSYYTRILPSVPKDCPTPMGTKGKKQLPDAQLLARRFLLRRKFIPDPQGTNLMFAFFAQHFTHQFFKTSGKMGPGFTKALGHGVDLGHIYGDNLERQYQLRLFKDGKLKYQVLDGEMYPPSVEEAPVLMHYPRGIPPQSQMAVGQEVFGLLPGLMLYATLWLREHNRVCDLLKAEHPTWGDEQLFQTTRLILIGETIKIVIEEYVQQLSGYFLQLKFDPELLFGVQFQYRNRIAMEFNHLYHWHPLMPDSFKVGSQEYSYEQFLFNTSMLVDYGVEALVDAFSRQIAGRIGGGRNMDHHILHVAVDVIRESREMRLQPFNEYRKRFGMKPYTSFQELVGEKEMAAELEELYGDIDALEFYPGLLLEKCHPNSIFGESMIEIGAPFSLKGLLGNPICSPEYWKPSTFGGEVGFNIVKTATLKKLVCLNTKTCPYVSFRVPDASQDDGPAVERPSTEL

`O=C(O)Cc1cc(O)ccc1Nc1c(Cl)cccc1Cl` [CHEBI:59612] came in with a half-maximal inhibitory concentration (IC50) of 447 µM.
`O=C(O)Cc1cc(O)ccc1Nc1c(Cl)cc(O)cc1Cl` [CHEBI:223401] displayed an IC50 of 912 µM.

By IC50 is commonly meant the concentration that inhibits the measured activity by half. Read a high IC50 as weaker potency.
